Test results: patent US5047398A, “DDAVP antidiuretic and method therefor” (Ferring B.V., priority 1983, dated 1991)
Where two headings read alike, the source gives them in different places.

Legend:
[1] = tested on: healthy subjects; type: in vivo, human
Procedure: Ten healthy subjects of both sexes, aged 18 through 43 were treated with DDAVP and 4-Asn-DDAVP.
One to two hours after a normal breakfast, the subjects were hydrated by drinking the volume of tap water that corresponded to 2% of their body weight. Every 15 minutes, urine was collected and its volume and osmolality were measured using an Advanced Osmometer Model 3D11. In order to overhydrate themselves, the subjects substituted their loss of fluid by drinking a volume of tap water that corresponded to the amount of urine collected. After about 40 to 45 minutes, the diuresis increased to about 200 milliliters per 15 minute period. At that time, DDAVP or 4-Asn-DDAVP in amounts of from 20 to 200 micrograms was administered perorally in 50 milliliters of distilled water. The DDAVP and 4-Asn-DDAVP were supplied by Ferring AB in lyophilized powder form which could easily be dissolved in water. The water diuresis was followed continually up to 6 hours.

[2] = tested on: healthy subjects; assay: Water diuresis in overhydrated subjects after injection through a duodenal tube; type: in vivo, human; settings: 200 micrograms in 10 ml water through duodenal tube, two subjects
Procedure: Two of the subjects were supplied with a duodenal tube which was inserted through the nose. The end of the tube was placed with the help of X-rays in the distal part of the duodenum. Overhydration and urine sampling were then carried out as described above. […] After this, 200 micrograms of DDAVP dissolved in 10 milliliters of water were injected through a tube.

[3] = in vivo; cited from earlier work

Molecule	side-effects ([1]; human, in vivo)	therapeutic (antidiuretic) effect ([1]; peroral, 20 microgram dosage)	dose dependence of antidiuretic response (magnitude and duration) ([1]; peroral, 20 to 200 micrograms in 50 ml distilled water)	duration of antidiuretic effect ([1]; peroral, 20 to 200 micrograms, diuresis followed up to 6 hours)	antidiuretic response with increase in osmolality and conductivity of urine [2]	antidiuretic activity [3]	therapeutic (antidiuretic) effect ([1]; oral, dose of 100 micrograms)	antidiuretic effect ([1]; oral, doses 20 to 200 micrograms, effect only with the highest dose)
NC(=O)CC[C@@H]1NC(=O)[C@H](Cc2ccccc2)NC(=O)[C@H](Cc2ccc(O)cc2)NC(=O)CCSSC[C@@H](C(=O)N2CCC[C@H]2C(=O)N[C@H](CCCN=C(N)N)C(=O)NCC(N)=O)NC(=O)[C@H](CC(N)=O)NC1=O [DDAVP, 1-deamino-8-D-arginine vasopressin]	no side-effects were experienced	therapeutic effect was obtained	dosedependent effect	at least 6 hours	immediate antidiuretic response	high and specific antidiuretic activity		
1-deamino-4-asparagine-8-D-arginine-vasopressin [Example 4-Asn-DDAVP]							no therapeutic effect	only a moderate, extremely short-lived, effect
